According to PubChem BioAssay (NCI):
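Test compounds were applied to cells in 96-well plates for 48 hours at 5 doses. TGI: total growth inhibition.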

How the values were obtained:
Test in all cases: NCI-60 cell line screen, 48 h
SF-539 CNS = system: SF-539 CNS
HT29 colon = system: HT29 colon
SW-620 colon = system: SW-620 colon
HCT-116 colon = system: HCT-116 colon
NCI-H522 lung = system: NCI-H522 lung
SN12C renal = system: SN12C renal
T-47D breast = system: T-47D breast
SK-OV-3 ovarian = system: SK-OV-3 ovarian
MDA-N = system: MDA-N
U251 CNS = system: U251 CNS
NCI-H23 lung = system: NCI-H23 lung
MDA-MB-231 breast = system: MDA-MB-231 breast
PC-3 prostate = system: PC-3 prostate
SNB-19 CNS = system: SNB-19 CNS
A498 renal = system: A498 renal
SF-268 CNS = system: SF-268 CNS
SNB-75 CNS = system: SNB-75 CNS
TK-10 renal = system: TK-10 renal
SK-MEL-2 melanoma = system: SK-MEL-2 melanoma
A549 NSCLC = system: A549 NSCLC
ACHN renal = system: ACHN renal
UO-31 renal = system: UO-31 renal
RXF 393 renal = system: RXF 393 renal
SK-MEL-28 melanoma = system: SK-MEL-28 melanoma
EKVX NSCLC = system: EKVX NSCLC
HOP-62 NSCLC = system: HOP-62 NSCLC
DU-145 prostate = system: DU-145 prostate
KM12 colon = system: KM12 colon
UACC-62 melanoma = system: UACC-62 melanoma
BT-549 breast = system: BT-549 breast
OVCAR-8 ovarian = system: OVCAR-8 ovarian
HCT-15 colon = system: HCT-15 colon
MCF7 breast = system: MCF7 breast
MDA-MB-435 = system: MDA-MB-435
NCI/ADR-RES ovarian = system: NCI/ADR-RES ovarian
OVCAR-4 ovarian = system: OVCAR-4 ovarian
SK-MEL-5 melanoma = system: SK-MEL-5 melanoma
M14 melanoma = system: M14 melanoma
RPMI-8226 leukemia = system: RPMI-8226 leukemia
NCI-H460 lung = system: NCI-H460 lung
OVCAR-3 ovarian = system: OVCAR-3 ovarian
786-0 renal = system: 786-0 renal
SF-295 CNS = system: SF-295 CNS
UACC-257 melanoma = system: UACC-257 melanoma
HS 578T breast = system: HS 578T breast
COLO 205 colon = system: COLO 205 colon
CAKI-1 renal = system: CAKI-1 renal
OVCAR-5 ovarian = system: OVCAR-5 ovarian
CCRF-CEM leukemia = system: CCRF-CEM leukemia
HOP-92 NSCLC = system: HOP-92 NSCLC
IGROV1 ovarian = system: IGROV1 ovarian
MALME-3M melanoma = system: MALME-3M melanoma
HCC-2998 colon = system: HCC-2998 colon
LOX IMVI melanoma = system: LOX IMVI melanoma
HL-60(TB) leukemia = system: HL-60(TB) leukemia
MOLT-4 leukemia = system: MOLT-4 leukemia
SR leukemia = system: SR leukemia
NCI-H226 lung = system: NCI-H226 lung
K-562 leukemia = system: K-562 leukemia

Cc1ccc(Cc2cc(N3CCN(c4cccc(Cl)c4)CC3)nnc2C)cc1
TGI (SF-539 CNS): > 100 µM
TGI (HT29 colon): 81.2 µM
TGI (SW-620 colon): > 100 µM
TGI (HCT-116 colon): > 100 µM
TGI (NCI-H522 lung): 81.5 µM
TGI (SN12C renal): > 100 µM
TGI (T-47D breast): > 100 µM
TGI (SK-OV-3 ovarian): > 100 µM
TGI (MDA-N): > 100 µM
TGI (U251 CNS): > 100 µM
TGI (NCI-H23 lung): > 100 µM
TGI (MDA-MB-231 breast): > 100 µM
TGI (PC-3 prostate): > 100 µM
TGI (SNB-19 CNS): > 100 µM
TGI (A498 renal): > 100 µM
TGI (SF-268 CNS): > 100 µM
TGI (SNB-75 CNS): > 100 µM
TGI (TK-10 renal): > 100 µM
TGI (SK-MEL-2 melanoma): > 100 µM
TGI (A549 NSCLC): > 100 µM
TGI (ACHN renal): > 100 µM
TGI (UO-31 renal): > 100 µM
TGI (RXF 393 renal): > 100 µM
TGI (SK-MEL-28 melanoma): > 100 µM
TGI (EKVX NSCLC): > 100 µM
TGI (HOP-62 NSCLC): > 100 µM
TGI (DU-145 prostate): > 100 µM
TGI (KM12 colon): > 100 µM
TGI (UACC-62 melanoma): > 100 µM
TGI (BT-549 breast): > 100 µM
TGI (OVCAR-8 ovarian): > 100 µM
TGI (HCT-15 colon): > 100 µM
TGI (MCF7 breast): > 100 µM
TGI (MDA-MB-435): > 100 µM
TGI (NCI/ADR-RES ovarian): > 100 µM
TGI (OVCAR-4 ovarian): > 100 µM
TGI (SK-MEL-5 melanoma): 41.6 µM
TGI (M14 melanoma): > 100 µM
TGI (RPMI-8226 leukemia): > 100 µM
TGI (NCI-H460 lung): > 100 µM
TGI (OVCAR-3 ovarian): > 100 µM
TGI (786-0 renal): > 100 µM
TGI (SF-295 CNS): > 100 µM
TGI (UACC-257 melanoma): > 100 µM
TGI (HS 578T breast): > 100 µM
TGI (COLO 205 colon): 73.8 µM
TGI (CAKI-1 renal): > 100 µM
TGI (OVCAR-5 ovarian): > 100 µM

O=C(c1ccccc1)N1CCN(C(=S)NC2CCCCC2)C1=S
TGI (SF-539 CNS): 27.7 µM
TGI (HT29 colon): 44.1 µM
TGI (CCRF-CEM leukemia): 45.1 µM
TGI (SW-620 colon): 55.6 µM
TGI (HCT-116 colon): 32.6 µM
TGI (NCI-H522 lung): 30.6 µM
TGI (SN12C renal): 40 µM
TGI (T-47D breast): 53.1 µM
TGI (SK-OV-3 ovarian): 65.6 µM
TGI (HOP-92 NSCLC): 36.7 µM
TGI (MDA-N): 42.8 µM
TGI (IGROV1 ovarian): 60.8 µM
TGI (U251 CNS): 21.6 µM
TGI (NCI-H23 lung): 36.1 µM
TGI (MDA-MB-231 breast): 21.1 µM
TGI (A498 renal): 43.3 µM
TGI (SF-268 CNS): 42.5 µM
TGI (MALME-3M melanoma): 32.1 µM
TGI (SNB-75 CNS): 31.6 µM
TGI (TK-10 renal): 62 µM
TGI (SK-MEL-2 melanoma): 14.9 µM
TGI (A549 NSCLC): 30.6 µM
TGI (ACHN renal): 58 µM
TGI (UO-31 renal): 30.5 µM
TGI (SK-MEL-28 melanoma): 31.2 µM
TGI (EKVX NSCLC): 38.3 µM
TGI (HOP-62 NSCLC): 37.3 µM
TGI (DU-145 prostate): 57.9 µM
TGI (KM12 colon): 30.9 µM
TGI (UACC-62 melanoma): 35.6 µM
TGI (BT-549 breast): 44.2 µM
TGI (OVCAR-8 ovarian): 32.9 µM
TGI (HCT-15 colon): 33.2 µM
TGI (HCC-2998 colon): 33.1 µM
TGI (LOX IMVI melanoma): 31.1 µM
TGI (HL-60(TB) leukemia): 50.3 µM
TGI (MCF7 breast): 48.2 µM
TGI (MDA-MB-435): 38 µM
TGI (NCI/ADR-RES ovarian): 43.6 µM
TGI (OVCAR-4 ovarian): 40.8 µM
TGI (MOLT-4 leukemia): 56 µM
TGI (SK-MEL-5 melanoma): 34.4 µM
TGI (M14 melanoma): 31.3 µM
TGI (SR leukemia): 88.7 µM
TGI (NCI-H460 lung): 49.5 µM
TGI (OVCAR-3 ovarian): 30.7 µM
TGI (NCI-H226 lung): 36.1 µM
TGI (786-0 renal): 52.2 µM
TGI (SF-295 CNS): 54.4 µM
TGI (UACC-257 melanoma): 38.6 µM
TGI (HS 578T breast): 50.3 µM
TGI (COLO 205 colon): 34 µM
TGI (K-562 leukemia): 96.8 µM
TGI (CAKI-1 renal): 62.4 µM
TGI (OVCAR-5 ovarian): 52.5 µM
